What all share (test): NCI tumour cell line growth inhibition, 48 h
The test system of assay [1] is K-562 leukemia.
The test system of assay [2] is UACC-62 melanoma.
Assay [3] has as its system COLO 205 colon.
In assay [4] the test system is EKVX NSCLC.
The test system of assay [5] is HOP-62 NSCLC.
Assay [6] relates to 786-0 renal.
The subject of assay [7] is NCI-H23 lung.
Assay [8] has as its system PC-3 prostate.
The subject of assay [9] is MDA-MB-231 breast.
Assay [10] relates to TK-10 renal.

Several values for one entry are separate records, joined by “and”; a condition that tells them apart may be missing. Equal values may be shown once.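 Growth conditions: 96-well plates. Treatment: test compound, 48 hours, 5 concentrations. Analysis: linear interpolation between bracketing concentrations; unreached endpoints set to highest concentration. GI50 marks 50% less growth. Definition used: TGI = concentration required for complete inhibition of growth.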

`Fc1cc2[nH]ncc2c2c3c(c(-c4cn[nH]c4C(F)(F)F)nc12)CCCC3`: the GI50 is 2.07 µM in [1]; 1.31 µM in assay [2]; 1.55 µM in assay [3]; 1.84 µM in [4]; 1.65 µM in assay [5]; 2 µM in assay [6]. Besides, the values for the GI50 in assay [7], in [8] and in [9] were 1.49 µM, 1.86 µM and 1.83 µM, respectively. Further, the TGI is > 100 µM in assay [1]; 3 µM in assay [2]; 4.32 µM in assay [3]; 5.3 µM in assay [4]; 6.19 µM in assay [5]; 7.16 µM in assay [6]. The TGI was 6.49 µM in assay [7], > 100 µM in assay [8] and 7.23 µM in assay [9].
On to `COC[C@@H](N=C1NC(=O)/C(=C/c2ccc3ncccc3c2)S1)c1ccccc1`, for which the GI50 in [1] is 10.3 µM; in assay [2], 11.6 µM; in [3], 10.8 µM; in assay [5], 11.7 µM; in [6] it was 10.2 µM; in assay [7], 11.5 µM. Moreover, the values for the GI50 in assay [8] and in assay [9] were 12.1 µM and 12.7 µM, respectively. The TGI in assay [1], in [2], in [3], in assay [5], in assay [6] and in [7] was > 25 µM each time. The TGI in assay [8] and in assay [9] was > 25 µM each time.
Turning to `CCCCCCCCCCCCOC1C(CNC(=O)C2OC3OC(C)(C)OC3C2NC(=O)Nc2ccc(CC(=O)OC)cc2)OC2OC(C)(C)OC21` (stereo not drawn), the GI50 in [10] was > 100 µM; in [2], > 100 µM; in [3], > 72.5 µM; in assay [4], > 100 µM; in assay [5], > 50.2 µM; in assay [6] it was > 100 µM. Besides, the GI50 in [7] is > 100 µM; in assay [8], > 100 µM; in [9] it was 8.43 µM. For the same compound, the TGI in assay [10], in assay [2], in assay [3], in assay [4], in assay [5] and in [6] was > 100 µM in each case. Also, the figures for the TGI in assay [7], in [8] and in assay [9] were > 100 µM, > 100 µM and > 82 µM, respectively.
For the compound `CC1=CC(=O)C2=C(C)CCC3C(C)C(=O)OC3C12` (stereo not drawn), the TGI in [10], in assay [2], in assay [3], in assay [4], in assay [5] and in [6] was > 100 µM throughout. Further, the TGI in [7], in assay [8] and in [9] was > 100 µM in each case.
With `COc1ccc(C(c2cc(OC)c(OC)c(OC)c2)n2ccnc2)cc1O` (stereo not drawn), the GI50 in [1] is 0.225 µM; in [2] it was 0.668 µM; in [3] it was 0.361 µM; in assay [4], 0.72 µM; in [5], 0.516 µM; in assay [6], 0.369 µM. Also, the GI50 in assay [7] was 0.882 µM; in assay [8] it was 0.384 µM; in assay [9], 0.664 µM. Also, the TGI was > 100 µM in assay [1]; > 100 µM in assay [2]; 1.77 µM in assay [3]; > 100 µM in [4]; > 100 µM in [5]; > 100 µM in assay [6]. The TGI in assay [7], in [8] and in [9] was > 100 µM each time.
Turning to `c1ccc2sc(SCCSc3nc4ccccc4s3)nc2c1`, the TGI in assay [1], in [10], in [2], in assay [4], in assay [5] and in [6] was > 100 µM each time. Further, the TGI in [7], in assay [8] and in [9] was > 100 µM throughout.
Consider `COc1ccc(C2=N[C@@H](Cc3ccccc3)C(=O)Nc3ccsc32)cc1`, for which the GI50 is 3.75 µM in [1]; 13 µM in assay [10]; 4.47 µM in [2]; 2.49 µM in [3]; 5.81 µM in [5]; 10.7 µM in [6]. Further, the GI50 in [7] was 11.1 µM; in assay [8], 3.78 µM; in assay [9], 11.4 µM. Also, the TGI in assay [1] stood at 27 µM; in [10], 56.6 µM; in [2], 20.2 µM; in assay [3] it was 5.03 µM; in [5] it was 19.1 µM; in assay [6], 36.6 µM. Moreover, the figures for the TGI in assay [7], in assay [8] and in assay [9] were 39.6 µM, 25.2 µM and 29.1 µM, respectively.
As to `CC(C)C1=CC(=O)C(C)(C2C(O)CC3(C)C4CC=C5C(CCC(OC6OC(CO)C(O)C(O)C6OC6OC(C)C(O)C(O)C6O)C5(C)C)C4(C)C(=O)CC23C)O1` (stereo not drawn), the TGI in [1], in assay [2], in assay [3], in assay [4], in assay [5] and in [6] was > 100 µM in each case. For the same compound, the TGI in assay [7], in [8] and in [9] was > 100 µM in each case.
Consider `COc1cc2c(cc1OC)[C@@H](Nc1ccc(C#N)cc1)C1COC(=O)[C@@H]1C2c1cc(OC)c(O)c(OC)c1` (stereo partly drawn), for which the GI50 in [10] was 2.49 µM and 1.06 µM; in [2], 0.372 µM and 0.167 µM; in [4], 16.4 µM and 6.9 µM; in assay [5] it was 0.0277 µM and 0.0929 µM; in [7], 0.159 µM and 0.0337 µM. Moreover, the TGI in assay [10] is 6.73 µM and 7.87 µM; in assay [2], 12.9 µM and 2.68 µM; in assay [3], 15.6 µM; in assay [4], 95 µM and 62.5 µM; in assay [5] it was 0.325 µM and 0.492 µM; in [6], 2.76 µM. The TGI in assay [7] was 1.47 µM and 0.257 µM; in [8], > 100 µM; in [9], 6.67 µM.
With `O=C(Nc1ccc2[nH]nc(-c3ccncc3)c2c1)[C@@H]1CCN(CC(=O)N2CCN(c3ccc(-c4ncccn4)cc3)CC2)C1`, the GI50 is 1.96 µM in assay [1]; < 0.012 µM in assay [3]; 0.281 µM in assay [5]; 47.4 µM in assay [6]; 0.0991 µM in [7]; 13.7 µM in assay [8]. Further, the GI50 in assay [9] is 0.0528 µM. Besides, the TGI in assay [1] was > 73.2 µM; in assay [3] it was > 82.3 µM; in assay [5] it was > 100 µM; in assay [6], > 100 µM; in [7] it was > 100 µM; in assay [8], > 100 µM. Besides, in assay [9], the TGI is > 100 µM.
`O=C(CC(Cl)=C(Cl)Cl)Nc1ccccc1`: the GI50 in [10], in assay [2], in assay [3], in assay [4], in assay [5] and in [6] was > 100 µM throughout. For the same compound, the GI50 in [7], in assay [8] and in assay [9] was > 100 µM throughout. Moreover, the TGI in assay [10], in assay [2], in assay [3], in [4], in assay [5] and in assay [6] was > 100 µM in each case. In addition, the TGI in assay [7], in [8] and in assay [9] was > 100 µM in each case.
Take `CC(=O)Nc1ccc2c(c1)C(c1ccccc1Cl)=Nc1c(n[nH]c1C)N2`: the GI50 in assay [1] was 17.3 µM; in assay [10], 4.13 µM; in assay [2], 6.07 µM; in assay [3] it was 1.53 µM; in assay [5], 5.74 µM; in assay [6], 7.79 µM. Further, the GI50 in assay [7] is 12.4 µM; in [8], > 25 µM; in assay [9], > 17.1 µM. Also, the TGI in assay [1] was > 25 µM; in [10] it was > 25 µM; in assay [2], > 25 µM; in assay [3], > 22 µM; in [5], > 25 µM; in assay [6] it was > 25 µM. In addition, the TGI in assay [7], in assay [8] and in assay [9] was > 25 µM in each case.
Take `CCOC(=O)c1ccc(NC(=O)Nc2nncs2)cc1`: the GI50 in assay [1] is 0.0754 µM; in assay [10], 5.79 µM; in assay [2] it was 0.0761 µM; in [3], 0.174 µM; in assay [5], 0.237 µM; in assay [6], 0.474 µM. For the same compound, the figures for the GI50 in assay [7], in assay [8] and in [9] were 0.649 µM, 0.273 µM and 0.532 µM, respectively. The TGI in assay [1] is > 46.6 µM; in assay [10], 41.2 µM; in [2] it was 26.4 µM; in assay [3] it was 2.63 µM; in assay [5] it was 15.6 µM; in [6], 14.5 µM. Besides, the TGI in assay [7] is 12.1 µM; in [8] it was 24.2 µM; in [9], 6.35 µM.
Turning to `Cc1nc2ccc(Nc3nc(Cl)nc(N4CCOCC4)n3)cc2n1Cc1ccccc1`, the GI50 in assay [1] was 2.82 µM; in [10], 35.8 µM; in assay [2] it was 3.43 µM; in assay [5], 16.2 µM; in assay [6], 11.7 µM; in [7], 1.94 µM. Further, the GI50 is 10 µM in [8] and 2.22 µM in assay [9]. Moreover, the TGI was > 100 µM in assay [1]; > 100 µM in assay [10]; 22.9 µM in assay [2]; > 100 µM in assay [5]; > 100 µM in assay [6]; 3.92 µM in [7]. Besides, the TGI is > 100 µM in assay [8] and 9.44 µM in assay [9].

Source of the values: PubChem BioAssay (NCI).
